Data: patent US20230390416A1, “COMPOSITIONS FOR INDUCING TUMOR IMMUNITY AND REDUCING DRUG TOLERANCE” (The Brigham and Women's Hospital, Inc., priority 2020, published 2023)

What was measured:
[1] = tested on: MDA-MB-468; assay: Fluorescent lipid uptake by flow cytometry, DTCCs vs DNCCs; format: cell-based, human; settings: multiple TNBC cell lines using epithelial-like MDA-MB-468
[2] = tested on: MDA-MB-231 DTCCs; assay: as above; format: cell-based, human; settings: for uptake into DTCCs vs. DNCCs: fluorescently labeled lipids, flow cytometry
[3] = tested on: MDA-MB-468 DTCCs; assay: MICA/B expression by flow cytometry in DTCCs under Hsp90 inhibitors; format: cell-based, human; settings: % MICA/B positively expressing cells, vehicle 54.7 ± 3.9
Experimental: (§1) Two schedules of drugs in combination were administered to the indicated TNBC parental cell lines (A). […] Plots generated using constant ratio drug combination. […] N=11 in biological replicate. • (D) Quantification of MICA/B mean fluorescence, corrected for background by negative control. […] N≥4 in biological replicate. • (I) In vitro drug synergy was determined using the Chau-Talalay method. Two schedules of drugs in combination were administered to the indicated TNBC parental cell lines (A). […] Plots generated using constant ratio drug combination. Values falling below 1.0 combination index=synergy. • (J) In silico prediction model of drug schedule on signaling pathways. […] The first drug was administered at the beginning of the experiment (t=0), followed by the second drug after 48 h (t=48). […] GAPDH loading control.
(§2) Human MDA-MB-231, MDA-MB-468, MDA-MB-436, MCF-7, mammary carcinoma 4T-1 cells (ATCC) and SUM159 (Bioivt) were purchased in the last 10 years and cultured in 10% fetal bovine serum in DMEM or RPMI media (Invitrogen, Carlsbad CA, USA). Cell lines were validated for absence of mycoplasma prior to use, by the sourcing agency. Cells were used within 10 passages from frozen stock vials obtained from the sourcing agency.

[4] = tested on: MDA-MB-231 DTCCs; assay: as above; format: cell-based, human; settings: % MICA/B positively expressing cells, overnight (radicicol 5 μM, FIG. 3C), vehicle 76.2 ± 1.1
Experimental: as §1, §2

[5] = tested on: SUM 159 DTCCs; assay: as above; format: cell-based, human; settings: % MICA/B positively expressing cells, vehicle 30.6 ± 0.9
Experimental: as §1, §2

[6] = tested on: Hsp90
[7] = clinical Cmax from published literature; used as ex vivo treatment concentration, 72 hours; cited from earlier work
[8] = NPs exemplified in U.S. Pat. No. 10,300,143; cited from earlier work
[9] = tested on: DTCCs; assay: Western blot of DTCCs after transient exposure to Rad-NP or radicicol free drug; format: cell-based; settings: 4 hours exposure, wash-out; in most cases
Experimental: Protein samples were resolved by SDS-PAGE and transferred to PVDF membranes prior to incubation at 4° C. with indicated primary antibodies, mTOR and pMTOR^Ser2448, pAKT^Thr308 and AKT, Phospho-p44/42 MAPK (Erk1/2)^Thr202/Tyr204, p44/42 MAPK (Erk1/2) pPRAS40^Thr246 pSTAT3^Tyr705, STAT3, PRAS40 and β-Actin antibodies were purchased from Cell Signaling Technology, pHck^Tyr410 (Thermo Fisher Scientific) MICA/B (R&D Systems, Minneapolis, MN) and HSF-1 and HSF-1^Ser326 (abcam).

With CCCCCCCC/C=C\CCCCCCCC(=O)OC[C@H](COP(=O)([O-])OCC[N+](C)(C)C)OC(=O)CCCCCNc1ccc([N+](=O)[O-])c2nonc12 [phosphatidylcholine (PC), 1-oleoyl-2-{6-[(7-nitro-2-1,3-benzoxadiazol-4-yl)amino]hexanoyl}-sn-glycero-3-phosphocholine] the “specificity of binding to DTCCs” value [1] was “bound with the highest degree of specificity”, the “rate of internalization in DTCC vs DNCC” value ([2]; checked at definite time intervals) was “higher rate of internalization” and the “uptake into DTCCs vs. DNCCs” value [2] was “significantly increased uptake into DTCCs vs. DNCCs”.
For CC(C)NCCCn1c(Sc2cc3c(cc2I)OCO3)nc2c(N)ncnc21 [PU-H71], the “MICA (%) ± SEM” value [3] was 71.9 ± 4.2%, the “MICA (%) ± SEM” value [4] was 79.5 ± 0.4% and the “MICA (%) ± SEM” value [5] was 33.3 ± 4.1%. For the same compound, the “cytoplasmic sequestration of HSF-1 Ser326 and activation of pro-survival proteins” value ([6]; DTCCs, confocal microscopy and western blot) was “reversed cytoplasmic sequestration of HSF-1^Ser326 and activation of pro-survival proteins”.
For N.N.O=C([O-])C1(C(=O)[O-])CCC1.[Pt+2] [Carboplatin], the “Cmax (concentration used)” value [7] is listed as 37100 ng/mL.
With CCCCCCCC/C=C\CCCCCCCC(=O)OC[C@H](COP(=O)(O)O)OC(=O)CCCCCCCCCCCNc1ccc([N+](=O)[O-])c2nonc12.N.N [phosphatidic acid (PA), 1-oleoyl-2-{12-[(7-nitro-2-1,3-benzoxadiazol-4-yl)amino]dodecanoyl}-sn-glycero-3-phosphate (ammonium salt)] the “uptake into DTCCs vs. DNCCs” value [2] was “to a lesser degree”.
For Oc1cccc(-c2nc(N3CCOCC3)c3oc4ncccc4c3n2)c1 [PI-103], the incorporation efficiency [8] is listed as 55-65%.
For CC(=O)O[C@@]12CO[C@@H]1C[C@H](O)[C@@]1(C)C(=O)[C@H](O)C3=C(C)[C@@H](OC(=O)[C@H](O)[C@@H](NC(=O)OC(C)(C)C)c4ccccc4)C[C@@](O)([C@@H](OC(=O)c4ccccc4)[C@H]21)C3(C)C [Docetaxel, docetaxel], the “Cmax (concentration used)” value [7] is listed as 2000 ng/mL and the “active form of HSF-1 (Ser326)” value ([6]; parental MDA-MB-231 cells under docetaxel drug pressure, western blot) is listed as “induced the active form of HSF-1 (Ser326)”.
For C=C1C[C@@H]2CC[C@@]34C[C@H]5O[C@H]6[C@@H](O3)[C@H]3O[C@H](CC[C@@H]3O[C@H]6[C@H]5O4)CC(=O)C[C@@H]3[C@@H](OC)[C@@H](C[C@H](O)CN)O[C@H]3C[C@H]3O[C@@H](CC[C@@H]1O2)C[C@@H](C)C3=C [Eribulin], the “Cmax (concentration used)” value [7] is listed as 371 ng/mL.
In the case of Nc1ccc(-c2cccc3c(=O)cc(N4CCOCC4)oc23)cc1 [PI-828], the incorporation efficiency [8] is listed as roughly 40%.
For CC(=O)O[C@H]1C(=O)[C@@]2(C)[C@H]([C@H](OC(=O)c3ccccc3)[C@]3(O)C[C@H](OC(=O)[C@H](O)[C@@H](NC(=O)c4ccccc4)c4ccccc4)C(C)=C1C3(C)C)[C@]1(OC(C)=O)CO[C@@H]1C[C@@H]2O [Paclitaxel], the Cmax [7] is listed as 6.91 µM.
In the case of Nc1ccn([C@@H]2O[C@H](CO)[C@@H](O)C2(F)F)c(=O)n1 [Gemcitabine], the “Cmax (concentration used)” value [7] is given as 22300 ng/mL.
For “Pembrolizumab: clinically-approved anticancer drug”, the “Cmax (concentration used)” value [7] is listed as 65700 ng/mL.
In the case of CC(CCC[C@@H](C)[C@@H]1CC[C@H]2[C@@H]3CC=C4C[C@@H](O)CC[C@]4(C)[C@H]3CC[C@@]21C)N(C)c1ccc([N+](=O)[O-])c2nonc12 (some centres unmarked) [cholesterol, 25-[N-[(7-nitro-2-1,3-benzoxadiazol-4-yl)methyl]amino]-27-norcholesterol], the “specificity of binding to DTCCs” value [1] is reported as “bound with the highest degree of specificity” and the “uptake into DTCCs vs. DNCCs” value [2] is reported as “significantly increased uptake into DTCCs vs. DNCCs”.
With C[C@@H]1C[C@H]2O[C@@H]2/C=C\C=C\C(=O)Cc2c(Cl)c(O)cc(O)c2C(=O)O1 [Radicicol, radicicol] the “time of rescue of signaling disruption” value [9] was no more than 36 h.
For CCCCCOC(=O)Nc1nc(=O)n([C@@H]2O[C@H](C)[C@@H](O)[C@H]2O)cc1F [Capecitabine], the “Cmax (concentration used)” value [7] is listed as 3900 ng/mL.
For C/C(=C\c1csc(C)n1)[C@@H]1C[C@@H]2O[C@]2(C)CCC[C@H](C)[C@H](O)[C@@H](C)C(=O)C(C)(C)[C@@H](O)CC(=O)N1 [Ixabepilone], the “Cmax (concentration used)” value [7] is listed as 252 ng/mL.
In the case of CCC1=C[C@@H]2CN(C1)Cc1c([nH]c3ccccc13)[C@@](C(=O)OC)(c1cc3c(cc1OC)N(C)[C@H]1[C@@](O)(C(=O)OC)[C@H](OC(C)=O)[C@]4(CC)C=CCN5CC[C@]31[C@@H]54)C2 [Vinorelbine], the “Cmax (concentration used)” value [7] is listed as 126.6 ng/mL.
With CC(C)c1cc(-c2n[nH]c(=O)n2-c2ccc3c(ccn3C)c2)c(O)cc1O [Ganetespib, ganetespib] the “MICA (%) ± SEM” value [3] was 70.1 ± 3.0%, the “MICA (%) ± SEM” value [4] was 82.5 ± 2.2% and the “MICA (%) ± SEM” value [5] was 35.4 ± 6.0%.
